This note sets out measurements from patent publication US12180187B2, “1-phenyl-5-azinylpyrazolyl-3-oxyalkyl acids and their use for controlling unwanted plant growth” (BAYER AKTIENGESELLSCHAFT, priority 2019, dated 2024).

In experiment [1] the test system is SETVI. The experiment in a line: Pre-emergence action at 320 g/ha against SETVI. Format: in vivo, Setaria viridis. The conditions noted are these: visual scoring after about 3 weeks vs untreated controls. In outline:
(§1)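 WP/EC formulations applied pre-emergence to covering soil, water rate 600 l/ha, 0.5% additive. Greenhouse, ~3 weeks. Visual % damage vs untreated (0–100%).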

The test system of the next experiment is DIGSA. The experiment in a line: Pre-emergence action at 320 g/ha against DIGSA. Format: in vivo, Digitaria sanguinalis. The settings on record: visual scoring after about 3 weeks vs untreated controls. In a few lines:
as §1

Another experiment deals with ALOMY. The experiment in a line: Pre-emergence action at 320 g/ha against ALOMY. The format is in vivo, Alopecurus myosuroides. The conditions noted are these: scored visually after about 3 weeks vs untreated controls (100% = plants have died). In a few lines: as §1
The test system of a further experiment is ECHCG. The experiment in a line: Pre-emergence action against ECHCG, 1280 g/ha. Format: in vivo, Echinochloa crus-galli. The settings on record: visual scoring after about 3 weeks vs untreated controls, 100% = plants have died, 0% = like control plants. In a few lines: (§2)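 Pre-emergence pot test: seeds in sandy loam, soil-covered, sprayed on soil surface (WP/EC, 0.5% additive, 600 L/ha water); greenhouse ~3 wk; visual % effect vs untreated, 0–100%.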

The test system of experiment [2] is POAAN. The experiment in a line: Pre-emergence action against POAAN, 1280 g/ha. The format is in vivo, Poa annua. The settings on record: visual scoring after about 3 weeks vs untreated controls, 100% = plants have died, 0% = like control plants. In a few lines:
as §2

Experiment [3] has as its system MATIN. The experiment in a line: Pre-emergence action against MATIN, 1280 g/ha. The settings on record: scored visually after about 3 weeks vs untreated controls (100% = plants have died). The format is in vivo, Tripleurospermum inodorum (Matricaria inodora). In outline: as §2
In experiment [4] the test system is SETVI. Kind of experiment: Pre-emergence action against SETVI, 1280 g/ha. Format: in vivo, Setaria viridis. The settings on record: visual scoring after about 3 weeks vs untreated controls, 100% = plants have died, 0% = like control plants. In outline:
as §2

The next experiment has as its system STEME. The experiment in a line: Pre-emergence action against STEME, 1280 g/ha. Format: in vivo, Stellaria media. The settings on record: scored visually after about 3 weeks vs untreated controls (100% = plants have died). In a few lines:
as §2

Experiment [5] concerns MATIN. Kind of experiment: Pre-emergence action at 320 g/ha against MATIN. The format is in vivo, Tripleurospermum inodorum (Matricaria inodora). The settings on record: visual scoring after about 3 weeks vs untreated controls. In outline:
as §1

Experiment [6] has as its system AMARE. The experiment in a line: Pre-emergence action against AMARE, 1280 g/ha. The settings on record: scored visually after about 3 weeks vs untreated controls (100% = plants have died). Format: in vivo, Amaranthus retroflexus. In outline:
as §2

The test system of another experiment is POLCO. Kind of experiment: Pre-emergence action at 320 g/ha against POLCO. The format is in vivo, Fallopia convolvulus (Polygonum convolvulus). The settings on record: visual scoring after about 3 weeks vs untreated controls. In a few lines: as §1
Experiment [7] relates to POAAN. Kind of experiment: Post-emergence action against POAAN, 1.28 kg/ha. Format: in vivo, Poa annua. The settings on record: dosage 1280 g/ha, visual rating about 3 weeks after treatment vs untreated controls. In a few lines: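 Post-emergence greenhouse spray, one-leaf stage (2–3 wk after sowing), sandy loam. WP/EC, aqueous + 0.5% additive, 600 L/ha water. Visual % activity vs untreated, ~3 wk after treatment; 100% = plants dead.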

The subject of experiment [8] is AMARE. The experiment in a line: Pre-emergence action at 320 g/ha against AMARE. The settings on record: visual scoring after about 3 weeks vs untreated controls. Format: in vivo, Amaranthus retroflexus. In a few lines: as §1

Each structure is given as a SMILES string.

On to `CCOC(=O)COc1nn(-c2ccccc2F)c(-c2ccc(F)nc2)c1I` [VII-036], for which the “Pre-emergence action against SETVI in %” value in the experiment on SETVI [1] turned out to be 100%. Also, the “Pre-emergence action against DIGSA in %” value in the experiment with DIGSA stood at 100%. Further, in the experiment with ALOMY, the “Pre-emergence action at 320 g/ha against ALOMY in %” value is reported as 100%. For the same compound, in the experiment on ECHCG, the “Pre-emergence action against ECHCG” value worked out at 100%. For the same compound, the “Pre-emergence action against POAAN” value in the experiment on POAAN [2] was 100%. Also, the “Pre-emergence action against MATIN” value in the experiment with MATIN [3] turned out to be 100%. The “Pre-emergence action against SETVI” value in the experiment with SETVI [4] worked out at 100%. Further, the “Pre-emergence action against STEME” value in the experiment on STEME was 100%. In addition, the “Pre-emergence action against MATIN in %” value in the experiment with MATIN [5] worked out at 90%. In addition, the “Pre-emergence action against AMARE” value with AMARE [6] stood at 100%. Moreover, the “Pre-emergence action against POLCO in %” value in the experiment with POLCO turned out to be 100%. The “Post-emergence action against POAAN” value with POAAN [7] was 100%. The “Pre-emergence action against AMARE in %” value in the experiment on AMARE [8] was found to be 100%.

Turning to `O=C(O)COc1nn(-c2ccccc2F)c(-c2ccc(F)nc2)c1I` [VII-037], the “Pre-emergence action against SETVI in %” value with SETVI [1] is given as 100%. The “Pre-emergence action against DIGSA in %” value in the experiment with DIGSA is 100%. In addition, the “Pre-emergence action at 320 g/ha against ALOMY in %” value with ALOMY worked out at 100%. In addition, the “Pre-emergence action against ECHCG” value in the experiment with ECHCG stood at 100%. Moreover, the “Pre-emergence action against POAAN” value in the experiment on POAAN [2] turned out to be 100%. The “Pre-emergence action against MATIN” value in the experiment on MATIN [3] is given as 100%. In addition, the “Pre-emergence action against SETVI” value in the experiment on SETVI [4] is 100%. Also, the “Pre-emergence action against STEME” value in the experiment with STEME stood at 100%. Besides, the “Pre-emergence action against MATIN in %” value in the experiment on MATIN [5] stood at 80%. The “Pre-emergence action against AMARE” value with AMARE [6] turned out to be 100%. In addition, the “Pre-emergence action against POLCO in %” value in the experiment on POLCO is listed as 100%. In the experiment with POAAN [7], the “Post-emergence action against POAAN” value came out at 100%. Also, the “Pre-emergence action against AMARE in %” value with AMARE [8] came out at 100%.

With `COCCOC(=O)COc1nn(-c2ccccc2F)c(-c2ccc(F)nc2)c1Br` [VII-052], the “Pre-emergence action against SETVI in %” value in the experiment on SETVI [1] turned out to be 100%. Moreover, the “Pre-emergence action against DIGSA in %” value in the experiment on DIGSA was determined as 100%. Besides, the “Pre-emergence action at 320 g/ha against ALOMY in %” value in the experiment with ALOMY is reported as 100%. Also, the “Pre-emergence action against ECHCG” value in the experiment on ECHCG came to 100%. For the same compound, the “Pre-emergence action against POAAN” value in the experiment with POAAN [2] is reported as 100%. Moreover, in the experiment with MATIN [3], the “Pre-emergence action against MATIN” value was determined as 100%. Further, the “Pre-emergence action against SETVI” value with SETVI [4] was 100%. Also, the “Pre-emergence action against STEME” value with STEME was 100%. The “Pre-emergence action against MATIN in %” value in the experiment with MATIN [5] is listed as 90%. Moreover, in the experiment with AMARE [6], the “Pre-emergence action against AMARE” value is listed as 100%. Also, the “Pre-emergence action against POLCO in %” value in the experiment on POLCO is listed as 100%. Further, in the experiment with POAAN [7], the “Post-emergence action against POAAN” value turned out to be 100%. Also, the “Pre-emergence action against AMARE in %” value with AMARE [8] came out at 100%.

As to `CCOC(=O)C(C)Oc1nn(-c2ccccc2F)c(-c2ccc(F)nc2)c1I` (centres unmarked) [VII-057], the “Pre-emergence action against SETVI in %” value in the experiment on SETVI [1] stood at 90%. The “Pre-emergence action against DIGSA in %” value in the experiment with DIGSA was 100%. Besides, in the experiment with ALOMY, the “Pre-emergence action at 320 g/ha against ALOMY in %” value is 100%. The “Pre-emergence action against ECHCG” value in the experiment with ECHCG is on record as 100%. In the experiment with POAAN [2], the “Pre-emergence action against POAAN” value was 100%. Moreover, in the experiment with MATIN [3], the “Pre-emergence action against MATIN” value came out at 100%. The “Pre-emergence action against SETVI” value in the experiment with SETVI [4] is recorded as 100%. The “Pre-emergence action against STEME” value in the experiment on STEME turned out to be 100%. Besides, the “Pre-emergence action against MATIN in %” value in the experiment with MATIN [5] is on record as 90%. Also, the “Pre-emergence action against AMARE” value with AMARE [6] amounted to 100%. In addition, in the experiment on POLCO, the “Pre-emergence action against POLCO in %” value is 90%. In addition, the “Post-emergence action against POAAN” value in the experiment on POAAN [7] was 100%. The “Pre-emergence action against AMARE in %” value with AMARE [8] is recorded as 100%.

Regarding `COC(=O)[C@@H](C)Oc1nn(-c2cc(F)ccc2F)c(-c2ccc(F)nc2)c1Br` [VII-062], in the experiment on SETVI [1], the “Pre-emergence action against SETVI in %” value was 100%. Besides, the “Pre-emergence action against DIGSA in %” value in the experiment on DIGSA is recorded as 100%. In addition, the “Pre-emergence action at 320 g/ha against ALOMY in %” value with ALOMY is given as 100%. The “Pre-emergence action against ECHCG” value in the experiment on ECHCG came out at 100%. In the experiment with POAAN [2], the “Pre-emergence action against POAAN” value is 100%. Besides, the “Pre-emergence action against MATIN” value in the experiment on MATIN [3] turned out to be 100%. The “Pre-emergence action against SETVI” value in the experiment with SETVI [4] came to 100%. Also, in the experiment on STEME, the “Pre-emergence action against STEME” value turned out to be 100%. Moreover, the “Pre-emergence action against MATIN in %” value in the experiment with MATIN [5] turned out to be 100%. Moreover, the “Pre-emergence action against AMARE” value with AMARE [6] was 100%. In addition, the “Pre-emergence action against POLCO in %” value in the experiment with POLCO amounted to 100%. Besides, the “Post-emergence action against POAAN” value in the experiment with POAAN [7] worked out at 100%. The “Pre-emergence action against AMARE in %” value in the experiment with AMARE [8] is recorded as 100%.
